6 compounds from ChEMBL document CHEMBL3400147, “New septanoside and 20-hydroxyecdysone septanoside derivative from Atriplex portulacoides roots with preliminary biological activities” (Bioorg Med Chem Lett, 2015) can be followed below.

Converted amounts (≈) assume the structure as drawn. The source made the active and inactive calls. The calls are words filed in the database; no cut-off is given here.

One data set concerns Pseudomonas aeruginosa. Briefly: Antimicrobial activity against Pseudomonas aeruginosa ATCC 27853 incubated for 24 hrs by microtiter plate dilution method. In kind it is functional.
A further data set relates to Escherichia coli. Briefly: Antimicrobial activity against Escherichia coli ATCC 25922 incubated for 24 hrs by microtiter plate dilution method. The data set is classed as functional.
The next data set concerns Staphylococcus aureus. Briefly: Antimicrobial activity against Staphylococcus aureus ATCC 25923 incubated for 24 hrs by microtiter plate dilution method. In kind it is functional.
In the next data set the test system is Enterococcus faecalis. Briefly: Antimicrobial activity against Enterococcus faecalis ATCC 29212 incubated for 24 hrs by microtiter plate dilution method. The data set is classed as functional.
A short description of data set [1]: Antioxidant activity assessed as DPPH radical scavenging activity incubated for 30 mins by UV absorption spectrometry. In kind it is physicochemical.
A short description of data set [2]: Antioxidant activity assessed as ABTS radical scavenging activity incubated for 6 mins. The data set is classed as physicochemical.
Data set [3] in a line: Antioxidant activity assessed as ferric-reducing antioxidant power after 20 mins at 50 degC by UV spectrophotometry. In kind it is physicochemical.
The nature of data set [4]: Antioxidant activity assessed as catalase activity by measuring hydrogen peroxide disappearance per mg protein measured for 1 min at 25 degC. The data set is classed as physicochemical.
The target of data set [5] is T1, Cholinesterase (Homo sapiens, UniProt P06276). Briefly: Inhibition of BchE in human plasma at 1 mg/ml incubated for 30 mins using butyrylthiocholine substrate at 37 degC by DTNB dye based spectrophotometry.
T1 sequence (P06276 whole entry): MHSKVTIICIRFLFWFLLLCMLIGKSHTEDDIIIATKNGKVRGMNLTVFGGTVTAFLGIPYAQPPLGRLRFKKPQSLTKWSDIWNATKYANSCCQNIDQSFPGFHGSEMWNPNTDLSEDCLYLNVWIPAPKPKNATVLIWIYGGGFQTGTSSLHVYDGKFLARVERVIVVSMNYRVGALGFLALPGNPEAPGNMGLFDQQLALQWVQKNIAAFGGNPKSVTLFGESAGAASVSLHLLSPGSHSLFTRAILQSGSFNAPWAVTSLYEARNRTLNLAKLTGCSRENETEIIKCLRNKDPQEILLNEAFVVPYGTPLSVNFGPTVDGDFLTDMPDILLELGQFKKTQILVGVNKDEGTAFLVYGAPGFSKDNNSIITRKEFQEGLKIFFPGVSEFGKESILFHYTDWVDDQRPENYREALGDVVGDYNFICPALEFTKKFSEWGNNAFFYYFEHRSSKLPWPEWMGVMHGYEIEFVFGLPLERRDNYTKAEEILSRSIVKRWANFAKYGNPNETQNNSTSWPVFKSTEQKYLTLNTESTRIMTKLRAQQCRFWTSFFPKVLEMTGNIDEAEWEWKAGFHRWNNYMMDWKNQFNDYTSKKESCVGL
Data set [6] deals with T1, Cholinesterase. The experiment in a line: Inhibition of BchE in human plasma incubated for 30 mins using butyrylthiocholine substrate at 37 degC by DTNB dye based spectrophotometry.

Regarding `CN[C@H](CC(C)C)C(=O)N[C@H]1C(=O)N[C@@H](CC(N)=O)C(=O)N[C@H]2C(=O)N[C@H]3C(=O)N[C@H](C(=O)N[C@H](C(=O)O)c4cc(O)cc(O)c4-c4cc3ccc4O)[C@H](O)c3ccc(c(Cl)c3)Oc3cc2cc(c3O[C@@H]2O[C@H](CO)[C@@H](O)[C@H](O)[C@H]2O[C@H]2C[C@](C)(N)[C@H](O)[C@H](C)O2)Oc2ccc(cc2Cl)[C@H]1O` [VANCOMYCIN], the MIC with Pseudomonas aeruginosa (ATCC 27853, 24 h) was 1 µg/mL (≈ 0.69 µM); in the data set with Escherichia coli (ATCC 25922, 24 h) it was 1 µg/mL (≈ 0.69 µM); in the data set on Staphylococcus aureus (ATCC 25923, 24 h), 3 µg/mL (≈ 2.07 µM); against Enterococcus faecalis (ATCC 29212, 24 h), 62 µg/mL (≈ 42.8 µM).

Regarding `CC(C)(O)CC[C@@H](O)[C@](C)(O)[C@H]1CC[C@@]2(O)C3=CC(=O)[C@@H]4C[C@@H](O)[C@@H](O)C[C@]4(C)[C@H]3CC[C@]12C` [20-HYDROXYECDYSONE], the IC50 in data set [1] is 155.82 µg/mL (≈ 324 µM); in [2] it was 98.74 µg/mL (≈ 205 µM); in data set [3] it was 262.45 µg/mL (≈ 546 µM); on Cholinesterase [6] (read-out: IC50 (converted)) it was 1050 µM. For the same compound, in data set [4], the Activity stood at 112.35 µmol/min. Moreover, the MIC against Pseudomonas aeruginosa (ATCC 27853, 24 h) came out at 62 µg/mL (≈ 129 µM); against Escherichia coli (ATCC 25922, 24 h), 125 µg/mL (≈ 260 µM); against Staphylococcus aureus (ATCC 25923, 24 h), 125 µg/mL (≈ 260 µM); in the data set on Enterococcus faecalis (ATCC 29212, 24 h), 125 µg/mL (≈ 260 µM). Further, the inhibition against Cholinesterase [5] is 71.2%.

Turning to `CCCCOC1(O)COC[C@@H](O)[C@@H](O)[C@H]1O` (some centres not stated), the IC50 result (in [1]; in [2]; in [3]; at Cholinesterase [6]) was “Not Active” each time. In data set [4], the Activity entry is on record as “Not Active”. The MIC result in the data set on Pseudomonas aeruginosa, in the data set with Escherichia coli, in the data set on Staphylococcus aureus and in the data set on Enterococcus faecalis was “inactive” in each case.

With `Cc1c(C)c2c(c(C)c1O)CCC(C)(C(=O)O)O2` (configuration not stated) [TROLOX], the IC50 was 14.56 µg/mL (≈ 58.2 µM) in data set [1], 2.02 µg/mL (≈ 8.07 µM) in [2] and 47.32 µg/mL (≈ 189 µM) in [3].

In the case of `CO[C@]1(O[C@@H](CCC(C)(C)O)[C@](C)(O)[C@H]2CC[C@@]3(O)C4=CC(=O)[C@@H]5C[C@@H](O)[C@@H](O)C[C@]5(C)[C@H]4CC[C@]23C)COC[C@@H](O)[C@@H](O)[C@H]1O`, the IC50 in data set [1] is 180.26 µg/mL (≈ 274 µM); in [2], 111.24 µg/mL (≈ 169 µM); in data set [3] it was 288.36 µg/mL (≈ 439 µM); at Cholinesterase [6] (read-out: IC50 (converted)), 837 µM. Further, the Activity in [4] worked out at 159.62 µmol/min. For the same compound, the MIC worked out at 125 µg/mL (≈ 190 µM) against Pseudomonas aeruginosa (ATCC 27853, 24 h); 62 µg/mL (≈ 94.4 µM) against Escherichia coli (ATCC 25922, 24 h); 125 µg/mL (≈ 190 µM) against Staphylococcus aureus (ATCC 25923, 24 h); 125 µg/mL (≈ 190 µM) in the data set on Enterococcus faecalis (ATCC 29212, 24 h). On Cholinesterase [5], the inhibition was 68.3%.

On to `O=C1O[C@H]([C@@H](O)CO)C(O)=C1O` [ASCORBIC ACID], for which the Activity in [4] came to 757.575 µmol/min.
